# Measurements from the NIST ThermoML archive (doi:10.1016/j.fluid.2013.01.026).
# ± gives the expanded uncertainty stated by the source.
# Conditions: Crystal; Melting Point Apparatus
row,Normal melting temperature [°C],SMILES
1,337.38 ± 0.2,"O=c1cc(-c2ccc(O)c(O)c2)oc2cc(O)cc(O)c12 [5,7,3',4'-tetrahydroxyflavone]"
2,177.20 ± 0.2,C[C@@H]1O[C@@H](OC[C@H]2O[C@@H](Oc3c(-c4ccc(O)c(O)c4)oc4cc(O)cc(O)c4c3=O)[C@H](O)[C@@H](O)[C@@H]2O)[C@H](O)[C@H](O)[C@H]1O [rutin]
